Data published in ChEMBL document CHEMBL1146235, “Rationally designed dual inhibitors of HIV reverse transcriptase and integrase” (J Med Chem, 2007).

Key:
[1] = Cytotoxicity against human PBMC; assay type: cell-based; details: PBMC (peripheral blood mononuclear cells)
[2] = target: Human immunodeficiency virus type 1 integrase (Human immunodeficiency virus 1, UniProt Q7ZJM1); assay: Inhibition of HIV1 integrase expressed in Escherichia coli BL21 (DE3)
[3] = target: Human immunodeficiency virus type 1 reverse transcriptase (Human immunodeficiency virus 1, UniProt Q72547); assay: Inhibition of HIV1 reverse transcriptase
[4] = Theraputc index, ratio of CC50 of PBMC cells to EC50 of HIV1 NL4-3; assay type: ADME, cell-based; details: read-out: Ratio CC50/EC50
[5] = tested on: Human immunodeficiency virus 1; assay: Antiviral activity against HIV1 NL4-3 in human PBMC; assay type: functional, organism-based; details: Human immunodeficiency virus 1, NL4.3
[6] = Cytotoxicity against CEM-SS cells assessed as cell viability; assay type: cell-based; details: human, read-out: Activity
[7] = tested on: Human immunodeficiency virus 1; assay: Antiviral activity against HIV1 3B in CEM-SS cells by cytoprotection assay; assay type: functional; design: concentration or dose not given beside the values

Chain of Human immunodeficiency virus type 1 integrase (Q7ZJM1 whole entry): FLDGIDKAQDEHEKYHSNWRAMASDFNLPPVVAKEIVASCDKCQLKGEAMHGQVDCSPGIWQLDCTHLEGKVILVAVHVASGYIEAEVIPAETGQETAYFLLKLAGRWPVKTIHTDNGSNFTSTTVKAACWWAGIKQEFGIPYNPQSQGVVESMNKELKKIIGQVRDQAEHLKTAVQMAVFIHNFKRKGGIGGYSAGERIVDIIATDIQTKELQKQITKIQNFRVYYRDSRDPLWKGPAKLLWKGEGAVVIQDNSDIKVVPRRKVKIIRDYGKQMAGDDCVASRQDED

Compound | IC50 [2] [nM] | IC50 [3] [nM] | EC50 [5] [nM] | CC50 [1] [nM] | selectivity ratio [4] | viability [6] [%] | Activity [7] [%]
CC(C)c1c(Cc2ccccc2)n(COCc2ccccc2)c(=O)[nH]c1=O | > 100000 | 16 | 16 | > 10000 | > 160 | – | –
O=Cc1ccc(-c2cc(-c3cccc(C=O)c3)c(O)c(O)c(=O)c2O)cc1 | 1100 | 1200 | 3000 | 6000 | 2 | – | –
CCc1c(Cc2cc(C)cc(C)c2)n(COCc2ccc(C(=O)/C=C(\O)C(=O)O)cc2)c(=O)[nH]c1=O | 4440 | 24.2 | 9.7 | > 10000 | > 1000 | 100 | 100
CCc1c(Cc2ccccc2)n(COCc2ccc(C(=O)/C=C(\O)C(=O)O)cc2)c(=O)[nH]c1=O | 1820 | 235 | 52 | > 10000 | > 190 | 91 | 95.2
CC(C)c1c(Cc2ccccc2)n(COCc2ccc(C(=O)/C=C(\O)C(=O)O)cc2)c(=O)[nH]c1=O | 2410 | 57 | 33 | > 10000 | > 310 | 90 | 100
O=C(O)/C(O)=C/C(=O)c1cccc(Cc2ccccc2)c1 | – | > 100000 | 160 | > 10000 | – | – | –

The next lines start with results.

IC50 [2] [nM] | IC50 [3] [nM] | EC50 [5] [nM] | Compound | CC50 [1] [nM] | selectivity ratio [4] | viability [6] [%] | Activity [7] [%]
7670 | 9.2 | 17 | Cc1cc(C)cc(Cc2c(C(C)C)c(=O)[nH]c(=O)n2COCc2ccc(C(=O)/C=C(\O)C(=O)O)cc2)c1 | > 10000 | > 600 | 100 | 100
700 | 390 | – | O=C(Nc1ccc2c(O)c(/N=N/c3ccc(C(=O)O)cc3)c(S(=O)(=O)O)cc2c1)Nc1ccc2c(O)c(/N=N/c3ccc(C(=O)O)cc3)c(S(=O)(=O)O)cc2c1 | – | – | – | –
300 | 4800 | – | O=[N+]([O-])c1ccc(C2c3c(O)nc(S)nc3Oc3nc(S)nc(O)c32)cc1 | 120000 | 14 | – | –
